# Measurements: US20260327244A1, “PYRIDO[4,3-D]PYRIMIDINE COMPOUNDS” (Pfizer Inc., priority 2022, published 2026)
# How the values were obtained:
# [1] = molecular target: T1, wild-type (WT) KRAS (aa1-185) (Homo sapiens, UniProt P01116); test: KRAS Surface Plasma Resonance (SPR) binding assay, WT KRAS; settings: SPR at 10 °C, geometric mean when tested more than once
# T1 construct: wild-type (WT) KRAS (aa1-185)
# Source text: No additional regeneration was used.
# Compound dissociation was monitored for at least 3600 seconds. […] No additional regeneration was used.
# [2] = molecular target: G12D KRAS (aa1-185) (Homo sapiens, UniProt P01116, G12D); test: biochemical;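 note: surface plasmon resonance at 10 °C, KRAS captured on a streptavidin chip in GDP-containing buffer, compound dilution series injected, blank streptavidin surface as reference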
# Sequence of G12D KRAS (aa1-185) (P01116 1-185 isoform P01116-2 G12D): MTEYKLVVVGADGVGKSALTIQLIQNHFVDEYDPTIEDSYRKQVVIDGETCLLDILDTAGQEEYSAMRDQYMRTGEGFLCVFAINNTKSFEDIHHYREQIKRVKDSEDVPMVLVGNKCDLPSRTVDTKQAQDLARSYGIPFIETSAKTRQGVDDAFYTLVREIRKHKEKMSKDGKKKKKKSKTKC
# Protocol: (§1) SPR assay was used to measure the kinetic binding constant (KD) of Examples of the present invention.
# (§2) The binding affinity and kinetics of Examples of the present invention were measured by Surface Plasmon Resonance (SPR) using Biacore 8K or 8K+ (Cytiva, Marlborough, MA) instruments. Recombinant, C-terminal site-specific biotinylated, wild-type (WT) KRAS (aa1-185), G12D KRAS (aa1-185), G12C KRAS (aa2-184), G12V KRAS (aa2-184), WT HRAS (aa2-184) and WT NRAS (aa2-185) proteins purified in presence of 1 μM GDP were used in these experiments. Binding measurements were performed parallelly in sets of either WT/G12D/G12C/G12V KRAS or WT K/H/N RAS proteins.
# (§3) Biacore instrument was desorbed and docked with a Series S Sensor Chip SA. The proteins were diluted to 50 μg/mL with the assay buffer (50 mM HEPES, 150 mM NaCl, 10 μM GDP, 5 mM MgCl2, 0.5 mM TCEP, 5% glycerol, 0.02% Tween-20, 2% DMSO, pH 7.2) and immobilized at a flow rate of 3 μL/min at 10° C. with a contact time of 15 min. to capture ~3000-4000 RUs of proteins on the surface. The functionalized surface was then equilibrated with assay buffer for approximately 1 hour. Un-functionalized SA surfaces with no immobilized protein served as reference for binding kinetic analysis. Compound binding kinetics were measured in either multi-cycle or single-cycle kinetic format.
# (§4) A 2-fold, 10-point serial dilution of test compounds was set-up in a 96-well microplate (Greiner; Cat #650101) with a top concentration of either 10 μM or 100 μM. Binding kinetics was measured at 10° C. by injecting serial dilution of compounds onto both reference and RAS immobilized channels at a flow rate of 100 μL/min and association time of 90 seconds. Compound dissociation was monitored for at least 400 seconds during each cycle. No additional regeneration was used. DMSO calibration curve was obtained before and after compound analysis by injecting 0-4% of DMSO in assay buffer. A suitable compound with known affinity and kinetics was tested once in every experiment as a positive control to assess activity of the captured protein on the surface.
# (§5) A 3-fold, 6-point serial dilution of compounds was set-up in a deep 96-well microplate (Greiner Bio; Cat #780201) with the highest concentration of 1 μM (concentration range: 0.004-1 μM). Binding kinetics was measured at 10° C. by injecting serial dilutions of compounds in increasing order onto reference as well as RAS immobilized channels at a flow rate of 100 μL/min and association time of 120 seconds. Compound dissociation was monitored for at least 3600 seconds. Two buffer blanks were also run in a single-cycle kinetics format before the compound run for double referencing. No additional regeneration was used. DMSO calibration curve was obtained before and after compound analysis by injecting 0-4% of DMSO in the assay buffer. A suitable compound with known affinity and kinetics was tested once in every experiment as a positive control to assess activity of the captured protein on the surface.
# (§6) Both MCK and SCK data were processed and analyzed using Biacore Insight evaluation software (Cytiva, Marlborough, MA)). […] The adequateness of the fit was judged by c^2 values and the randomness of residue distribution.
# (§7) A geometric mean of binding constant KD was provided when an Example was tested more than once (n is testing replicate number).
# [3] = molecular target: G12C KRAS (aa2-184) (Homo sapiens, UniProt P01116, G12C); test: biochemical
# Sequence of G12C KRAS (aa2-184) (P01116 2-184 isoform P01116-2 G12C): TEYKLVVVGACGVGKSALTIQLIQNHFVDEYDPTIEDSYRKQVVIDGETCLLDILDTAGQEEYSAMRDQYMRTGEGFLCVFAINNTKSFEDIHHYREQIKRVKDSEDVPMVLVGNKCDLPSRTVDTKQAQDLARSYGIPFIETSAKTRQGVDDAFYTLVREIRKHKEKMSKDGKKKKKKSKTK
# Protocol: as §1, §2, §3, §4, §5, §6, §7
# [4] = molecular target: G12V KRAS (aa2-184) (Homo sapiens, UniProt P01116, G12V); test: biochemical
# Sequence of G12V KRAS (aa2-184) (P01116 2-184 isoform P01116-2 G12V): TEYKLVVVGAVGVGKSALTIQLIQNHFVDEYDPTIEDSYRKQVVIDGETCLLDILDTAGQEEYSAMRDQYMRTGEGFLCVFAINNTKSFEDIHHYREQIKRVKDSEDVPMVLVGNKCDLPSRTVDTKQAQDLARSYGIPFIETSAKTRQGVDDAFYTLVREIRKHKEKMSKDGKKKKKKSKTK
# Protocol: as §1, §2, §3, §4, §5, §6, §7
# T1 sequence (P01116 1-185 isoform P01116-2): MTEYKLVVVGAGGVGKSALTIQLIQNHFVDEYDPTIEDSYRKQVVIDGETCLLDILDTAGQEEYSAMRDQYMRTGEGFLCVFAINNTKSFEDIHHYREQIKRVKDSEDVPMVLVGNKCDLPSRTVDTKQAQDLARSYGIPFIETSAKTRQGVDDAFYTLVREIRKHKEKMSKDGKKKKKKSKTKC
Kd [1] [nM],Kd [2] [nM],Kd [3] [nM],Kd [4] [nM],Compound
2.55,11.4,8.33,6.71,"C#Cc1cccc2cc(O)cc(-c3ncc4c(N5C[C@H](CC#N)[C@@H](F)C5)nc(OC[C@@]56CCCN5C[C@H](F)C6)nc4c3F)c12 (mixture of isomers) [Example 7, {(3SR,4RS)-1-[7-(8-ethynyl-3-hydroxynaphthalen-1-yl)-8-fluoro-2-{[(2R,7aS)-2-fluorotetrahydro-1H-pyrrolizin-7a(5H)-yl]methoxy}pyrido[4,3-d]pyrimidin-4-yl]-4-fluoropyrrolidin-3-yl}acetonitrile]"
0.092,0.214,0.759,0.13,"C#Cc1cccc2cc(O)cc(-c3ncc4c(N5C[C@H]6C[C@@H](O)[C@@H](C5)O6)nc(OC[C@@]56CCCN5C[C@H](F)C6)nc4c3F)c12 (relative stereo) [Example 18, (1R*,5R*,6R*)-3-[7-(8-ethynyl-3-hydroxynaphthalen-1-yl)-8-fluoro-2-{[(2R,7aS)-2-fluorotetrahydro-1H-pyrrolizin-7a(5H)-yl]methoxy}pyrido[4,3-d]pyrimidin-4-yl]-8-oxa-3-azabicyclo[3.2.1]octan-6-ol]"
1.76,1.01,1.9,1.46,"Oc1cc(-c2ncc3c(N4C[C@H]5C[C@@H](O)[C@H]5C4)nc(OC[C@@]45CCCN4C[C@H](F)C5)nc3c2F)c2c(Cl)cccc2c1 (relative stereo) [Example 21, (1S*,5R*,6R*)-3-[7-(8-chloro-3-hydroxynaphthalen-1-yl)-8-fluoro-2-{[(2R,7aS)-2-fluorotetrahydro-1H-pyrrolizin-7a(5H)-yl]methoxy}pyrido[4,3-d]pyrimidin-4-yl]-3-azabicyclo[3.2.0]heptan-6-ol]"
11.9,36.9,42.4,46.7,"Oc1cc(-c2ncc3c(N4C[C@@H]5C[C@H](O)[C@@H]5C4)nc(OC[C@@]45CCCN4C[C@H](F)C5)nc3c2F)c2c(Cl)cccc2c1 (relative stereo) [Example 22, (1R*,5S*,6S*)-3-[7-(8-chloro-3-hydroxynaphthalen-1-yl)-8-fluoro-2-{[(2R,7aS)-2-fluorotetrahydro-1H-pyrrolizin-7a(5H)-yl]methoxy}pyrido[4,3-d]pyrimidin-4-yl]-3-azabicyclo[3.2.0]heptan-6-ol]"
27.9,78.3,84.7,91.7,"C#Cc1cccc2cc(O)cc(-c3ncc4c(N5C[C@@H]6C[C@H](O)[C@H](C5)O6)nc(OC[C@@]56CCCN5C[C@H](F)C6)nc4c3F)c12 (single isomer, unassigned) [Example 19, (1S*,5S*,6S*)-3-[7-(8-ethynyl-3-hydroxynaphthalen-1-yl)-8-fluoro-2-{[(2R,7aS)-2-fluorotetrahydro-1H-pyrrolizin-7a(5H)-yl]methoxy}pyrido[4,3-d]pyrimidin-4-yl]-8-oxa-3-azabicyclo[3.2.1]octan-6-ol]"
0.273,0.268,1.23,0.454,"C#Cc1cccc2cc(O)cc(-c3ncc4c(N5CCC[C@@H](CC#N)C5)nc(OC[C@@]56CCCN5C[C@H](F)C6)nc4c3F)c12 [Example 1, {(3S)-1-[7-(8-ethynyl-3-hydroxynaphthalen-1-yl)-8-fluoro-2-{[(2R,7aS)-2-fluorotetrahydro-1H-pyrrolizin-7a(5H)-yl]methoxy}pyrido[4,3-d]pyrimidin-4-yl]piperidin-3-yl}acetonitrile]"
0.422,1.89,1.64,0.515,"C#Cc1cccc2cc(O)cc(-c3ncc4c(N5C[C@H]6CC[C@@H](C5)O6)nc(OC[C@@]56CCCN5C[C@H](F)C6)nc4c3F)c12 [Example 2, 5-ethynyl-4-(8-fluoro-2-{[(2R,7aS)-2-fluorotetrahydro-1H-pyrrolizin-7a(5H)-yl]methoxy}-4-[(1R,5S)-8-oxa-3-azabicyclo[3.2.1]octan-3-yl]pyrido[4,3-d]pyrimidin-7-yl)naphthalen-2-ol]"
0.308,14.1,1.94,3.69,"C#Cc1cccc2cc(O)cc(-c3ncc4c(N5CCN(C(C)=O)[C@@H](CC#N)C5)nc(OC[C@@]56CCCN5C[C@H](F)C6)nc4c3F)c12 [Example 4, {(2S)-1-acetyl-4-[7-(8-ethynyl-3-hydroxynaphthalen-1-yl)-8-fluoro-2-{[(2R,7aS)-2-fluorotetrahydro-1H-pyrrolizin-7a(5H)-yl]methoxy}pyrido[4,3-d]pyrimidin-4-yl]piperazin-2-yl}acetonitrile]"
2.89,10.5,11.4,22.1,"C#Cc1cccc2cc(O)cc(-c3ncc4c(N5CC[C@@](C)(CC#N)C5)nc(OC[C@@]56CCCN5C[C@H](F)C6)nc4c3F)c12 [Example 5, {(3S)-1-[7-(8-ethynyl-3-hydroxynaphthalen-1-yl)-8-fluoro-2-{[(2R,7aS)-2-fluorotetrahydro-1H-pyrrolizin-7a(5H)-yl]methoxy}pyrido[4,3-d]pyrimidin-4-yl]-3-methylpyrrolidin-3-yl}acetonitrile]"
1.89,2.43,2.67,1.35,"C#Cc1cccc2cc(O)cc(-c3ncc4c(N5CC[C@@H](CC#N)C5)nc(OC[C@@]56CCCN5C[C@H](F)C6)nc4c3F)c12 [Example 6, {(3S)-1-[7-(8-ethynyl-3-hydroxynaphthalen-1-yl)-8-fluoro-2-{[(2R,7aS)-2-fluorotetrahydro-1H-pyrrolizin-7a(5H)-yl]methoxy}pyrido[4,3-d]pyrimidin-4-yl]pyrrolidin-3-yl}acetonitrile]"
0.398,1.69,1.54,11.5,"C#Cc1cccc2cc(O)cc(-c3ncc4c(N5CCC[C@@](C)(CC#N)C5)nc(OC[C@@]56CCCN5C[C@H](F)C6)nc4c3F)c12 [Example 8, {(3S)-1-[7-(8-ethynyl-3-hydroxynaphthalen-1-yl)-8-fluoro-2-{[(2R,7aS)-2-fluorotetrahydro-1H-pyrrolizin-7a(5H)-yl]methoxy}pyrido[4,3-d]pyrimidin-4-yl]-3-methylpiperidin-3-yl}acetonitrile]"
0.019,0.099,0.447,0.308,"C#Cc1cccc2cc(O)cc(-c3ncc4c(N5C[C@@H]6C[C@H](C5)[C@H](O)C6)nc(OC[C@@]56CCCN5C[C@H](F)C6)nc4c3F)c12 [Example 9, (1R,5R,6R)-3-[7-(8-ethynyl-3-hydroxynaphthalen-1-yl)-8-fluoro-2-{[(2R,7aS)-2-fluorotetrahydro-1H-pyrrolizin-7a(5H)-yl]methoxy}pyrido[4,3-d]pyrimidin-4-yl]-3-azabicyclo[3.2.1]octan-6-ol]"
19.7,23.6,38.9,98.7,"N#C[C@@H]1CCCN1c1nc(OC[C@@]23CCCN2C[C@H](F)C3)nc2c(F)c(-c3cc(O)cc4ccc(F)c(F)c34)ncc12 [Example 11, (2S)-1-[7-(7,8-difluoro-3-hydroxynaphthalen-1-yl)-8-fluoro-2-{[(2R,7aS)-2-fluorotetrahydro-1H-pyrrolizin-7a(5H)-yl]methoxy}pyrido[4,3-d]pyrimidin-4-yl]pyrrolidine-2-carbonitrile]"
0.118,0.128,0.749,0.274,"C#Cc1c(F)ccc2cc(O)cc(-c3ncc4c(N5CCC[C@@H](CC#N)C5)nc(OC[C@@]56CCCN5C[C@H](F)C6)nc4c3F)c12 [Example 15, {(3S)-1-[7-(8-ethynyl-7-fluoro-3-hydroxynaphthalen-1-yl)-8-fluoro-2-{[(2R,7aS)-2-fluorotetrahydro-1H-pyrrolizin-7a(5H)-yl]methoxy}pyrido[4,3-d]pyrimidin-4-yl]piperidin-3-yl}acetonitrile]"
0.362,0.553,0.963,0.269,"Oc1cc(-c2ncc3c(N4C[C@@H]5C[C@H](C4)[C@H](O)C5)nc(OC[C@@]45CCCN4C[C@H](F)C5)nc3c2F)c2ccccc2c1 [Example 17, (1R,5R,6R)-3-[8-fluoro-2-{[(2R,7aS)-2-fluorotetrahydro-1H-pyrrolizin-7a(5H)-yl]methoxy}-7-(3-hydroxynaphthalen-1-yl)pyrido[4,3-d]pyrimidin-4-yl]-3-azabicyclo[3.2.1]octan-6-ol]"
0.145,0.081,0.079,0.052,"C#Cc1c(F)ccc2cc(O)cc(-c3nc4c5c(nc(OC[C@@]67CCCN6C[C@H](F)C7)nc5c3F)N(C)CCO4)c12 [Example 24, 5-ethynyl-6-fluoro-4-(4-fluoro-2-{[(2R,7aS)-2-fluorotetrahydro-1H-pyrrolizin-7a(5H)-yl]methoxy}-10-methyl-9,10-dihydro-8H-7-oxa-1,3,6,10-tetraazacyclohepta[1,2,3-de]naphthalen-5-yl)naphthalen-2-ol]"
0.014,0.046,0.031,0.117,"C#Cc1c(F)ccc2cc(O)cc(-c3nc4c5c(nc(OC[C@@]67CCCN6C[C@H](F)C7)nc5c3F)N(CCO)CCO4)c12 [Example 26, 5-ethynyl-6-fluoro-4-[4-fluoro-2-{[(2R,7aS)-2-fluorotetrahydro-1H-pyrrolizin-7a(5H)-yl]methoxy}-10-(2-hydroxyethyl)-9,10-dihydro-8H-7-oxa-1,3,6,10-tetraazacyclohepta[1,2,3-de]naphthalen-5-yl]naphthalen-2-ol]"
